# Measurements reported in patent US9770025B2, “Fungicidal compositions” (Syngenta Participations AG, priority 2013, dated 2017).
# Key:
# Format in all cases: cell-based
# [1] = test system: Alternaria solani; experiment: Alternaria solani liquid culture growth inhibition; details: for (B2) Inhibition (%) / (B4) Inhibition (%) / (B5) Inhibition (%): PDB; for (B2) Inhibition (%): Table 9; for (B4) Inhibition (%): Table 11; for (B5) Inhibition (%): Table 13
# Experimental: (§1) Liquid Culture Tests in Well Plates
# Mycelia fragments or conidia suspensions of a fungus, prepared either freshly from liquid cultures of the fungus or from cryogenic storage, were directly mixed into nutrient broth. DMSO solutions of the test compound (max. 10 mg/ml) was diluted with 0.025% Tween20 by factor 50 and 10 μl of this solution was pipetted into a microtiter plate (96-well format). […] The test plates were incubated in the dark at 24° C. and 96% rh. The inhibition of fungal growth was determined photometrically and visually after 2-4 days, depending on the pathosystem, and percent antifungal activity relative to the untreated check was calculated.
# Alternaria solanil/Liquid Culture:
# (§2) Conidia of the fungus from cryogenic storage were directly mixed into nutrient broth (PDB potato dextrose broth). After placing a (DMSO) solution of test compound into a microtiter plate (96-well format), the nutrient broth containing the fungal spores was added.
# [2] = test system: Mycosphaerella graminicola (Septoria tritici); experiment: Mycosphaerella graminicola (Septoria tritici) liquid culture growth inhibition; details: for (B4) Inhibition (%) / (B5) Inhibition (%): PDB; for (B4) Inhibition (%): Table 12; for (B5) Inhibition (%): Table 14
# Experimental: as §1
# (§3) Mycelia fragments or conidia suspensions of a fungus, prepared either freshly from liquid cultures of the fungus or from cryogenic storage, were directly mixed into nutrient broth. DMSO solutions of the test compound (max. 10 mg/ml) was diluted with 0.025% Tween20 by factor 50 and 10 μl of this solution was pipetted into a microtiter plate (96-well format). The nutrient broth containing the fungal spores/mycelia fragments was then added to give an end concentration of the tested compound. The test plates were incubated in the dark at 24° C. and 96% rh. The inhibition of fungal growth was determined photometrically and visually after 2-4 days, depending on the pathosystem, and percent antifungal activity relative to the untreated check was calculated.
# Mycosphaerella graminicola (Septoria tritici)/Liquid Culture:
# as §2
# [3] = test system: Pythium ultimum; experiment: Pythium ultimum (seedling damping off) liquid culture growth inhibition; details: 0.0625 ppm; PDB; Table 10
# Experimental: as §1, §3
# Pythium ultimum Seedling Damping Off)/Liquid Culture:
# Mycelia fragments and oospores of a newly grown liquid culture of the fungus were directly mixed into nutrient broth (PDB potato dextrose broth). After placing a (DMSO) solution of the test compounds into a microtiter plate (96-well format), the nutrient broth containing the fungal mycelia/spore mixture was added.
# [4] = test system: Botryotinia fuckeliana (Botrytis cinerea); experiment: Botryotinia fuckeliana (Botrytis cinerea) liquid culture growth inhibition; details: in Vogels Broth
# Experimental: as §1, §3
# Botryotinia fuckeliana (Botrytis cinerea)/Liquid Culture:
# Conidia of the fungus from cryogenic storage were directly mixed into nutrient broth (Vogels broth). After placing a (DMSO) solution of test compound into a microtiter plate (96-well format), the nutrient broth containing the fungal spores was added.
# [5] = test system: Fusarium culmorum; experiment: Fusarium culmorum liquid culture growth inhibition; details: in PDB
# Experimental: as §1, §3
# Fusarium culmorum/Liquid Culture:
# as §2
# [6] = test system: Monographella nivalis (Microdochium nivale); experiment: Monographella nivalis (Microdochium nivale) liquid culture growth inhibition
# Experimental: as §1, §3
# Monographella nivalis (Microdochium nivale)/Liquid Culture:
# as §2
# [7] = test system: Gaeumannomyces graminis; experiment: Gaeumannomyces graminis liquid culture growth inhibition; details: in PDB
# Experimental: as §1, §3
# Gaeumannomyces graminis/Liquid Culture:
# Mycelial fragments of the fungus from cryogenic storage were directly mixed into nutrient broth (PDB potato dextrose broth). After placing a (DMSO) solution of test compound into a microtiter plate (96-well format), the nutrient broth containing the fungal spores was added.
# [8] = Monographella nivalis, read-out: (B10) Inhibition (%)
# [9] = Zymoseptoria tritici, read-out: (B10) Inhibition (%)
smiles,measurement,setting,value
"C=CCSC(=O)n1c(N)c(-c2ccccc2C)c(=O)n1C(C)C [(B2), fenpyrazamine]",(B2) Inhibition (%),[1]; 0.0313 ppm,0%
same,(B2) Inhibition (%),[1]; 0.0625 ppm,1%
"Cc1cc(C(F)(F)F)nn1CC(=O)N1CCC(c2nc(C3=NOC(c4c(F)cccc4F)C3)cs2)CC1 (stereo not drawn) [(B4), oxathiapiprolin]",(B4) Inhibition (%),[1]; 0.0039 ppm,0%
same,(B4) Inhibition (%),[1]; 0.0078 ppm,4%
same,(B4) Inhibition (%),[1]; 0.0156 ppm,0%
same,(B4) Inhibition (%),[1]; 0.0313 ppm,0%
same,(B4) Inhibition (%),[2]; 0.0313 ppm,8%
same,(B4) Inhibition (%),[2]; 0.0625 ppm,4%
same,(B4) Inhibition (%),[3],61%
"Cc1ccc(C(=O)NC[C@@H](NC(=O)OCC(F)(F)F)C(C)C)cc1 [(B5), tolprocarb]",(B5) Inhibition (%),[1]; 0.0391 ppm,0%
same,(B5) Inhibition (%),[1]; 0.0781 ppm,0%
same,(B5) Inhibition (%),[1]; 0.3125 ppm,0%
same,(B5) Inhibition (%),[2]; 0.0391 ppm,7%
same,(B5) Inhibition (%),[2]; 0.0781 ppm,1%
same,(B5) Inhibition (%),[2]; 0.1563 ppm,4%
same,(B5) Inhibition (%),[2]; 0.6250 ppm,1%
"CO/C=C(/C(=O)OC)c1ccccc1COc1ccc(C(F)(F)F)cc1Cl [(B6), flufenoxystrobin, reference compound]",(B6) Inhibition (%),"[1]; 0.0016 ppm, in PDB",6%
same,(B6) Inhibition (%),"[1]; 0.0063 ppm, in PDB",1%
same,(B6) Inhibition (%),[4]; 0.0063 ppm,17%
same,(B6) Inhibition (%),[4]; 0.0125 ppm,23%
same,(B6) Inhibition (%),[4]; 0.0250 ppm,33%
same,(B6) Inhibition (%),[5]; 0.0500 ppm,5%
same,(B6) Inhibition (%),[5]; 0.1000 ppm,3%
same,(B6) Inhibition (%),[5]; 0.2000 ppm,12%
same,(B6) Inhibition (%),"[6]; 0.0008 ppm, in PDB",23%
same,(B6) Inhibition (%),"[6]; 0.0016 ppm, in PDB",51%
same,(B6) Inhibition (%),"[2]; 0.0031 ppm, in PDB",17%
same,(B6) Inhibition (%),"[2]; 0.0063 ppm, in PDB",23%
same,(B6) Inhibition (%),"[2]; 0.0125 ppm, in PDB",33%
CC1CC(C)(C)c2c(F)ccc(NC(=O)c3cn(C)nc3C(F)F)c21 (stereo not drawn) [(B9)],inhibition at 0.0078 ppm,"[1]; Alternaria solani, 0.0078 ppm, in PDB, read-out: (B9) Inhibition (%)",0%
same,inhibition at 0.0156 ppm,"[1]; Alternaria solani, 0.0156 ppm, in PDB, read-out: (B9) Inhibition (%)",11%
same,inhibition at 0.0313 ppm,"[1]; Alternaria solani, 0.0313 ppm, in PDB, read-out: (B9) Inhibition (%)",5%
same,inhibition at 0.0625 ppm,"[1]; Alternaria solani, 0.0625 ppm, in PDB, read-out: (B9) Inhibition (%)",22%
same,inhibition at 0.0039 ppm,"[4]; Botrytis cinerea, 0.0039 ppm, read-out: (B9) Inhibition (%)",14%
same,inhibition at 0.0078 ppm,"[4]; Botrytis cinerea, 0.0078 ppm, read-out: (B9) Inhibition (%)",19%
same,inhibition at 0.0156 ppm,"[4]; Botrytis cinerea, 0.0156 ppm, read-out: (B9) Inhibition (%)",31%
same,inhibition at 0.0313 ppm,"[4]; Botrytis cinerea, 0.0313 ppm, read-out: (B9) Inhibition (%)",52%
same,inhibition at 0.125 ppm,"[6]; Monographella nivalis, 0.1250 ppm, in PDB, read-out: (B9) Inhibition (%)",0%
same,inhibition at 0.5 ppm,"[6]; Monographella nivalis, 0.5000 ppm, in PDB, read-out: (B9) Inhibition (%)",0%
same,inhibition at 1 ppm,"[6]; Monographella nivalis, 1.0000 ppm, in PDB, read-out: (B9) Inhibition (%)",10%
same,inhibition at 0.0039 ppm,"[2]; Zymoseptoria tritici, 0.0039 ppm, in PDB, read-out: (B9) Inhibition (%)",0%
same,inhibition at 0.0156 ppm,"[2]; Zymoseptoria tritici, 0.0156 ppm, in PDB, read-out: (B9) Inhibition (%)",0%
same,inhibition at 0.0313 ppm,"[2]; Zymoseptoria tritici, 0.0313 ppm, in PDB, read-out: (B9) Inhibition (%)",9%
same,inhibition at 0.0625 ppm,"[2]; Zymoseptoria tritici, 0.0625 ppm, in PDB, read-out: (B9) Inhibition (%)",7%
"CCCCc1c(C)c2ccc(OCc3ccccc3/C(=C\OC)C(=O)OC)cc2oc1=O [(B10), coumoxystrobin, reference compound]",inhibition at 0.05 ppm,"[5]; Fusarium culmorum, 0.0500 ppm, read-out: (B10) Inhibition (%)",12%
same,inhibition at 0.1 ppm,"[5]; Fusarium culmorum, 0.1000 ppm, read-out: (B10) Inhibition (%)",8%
same,inhibition at 0.2 ppm,"[5]; Fusarium culmorum, 0.2000 ppm, read-out: (B10) Inhibition (%)",11%
same,inhibition at 0.0008 ppm,[6]; [8],46%
same,inhibition at 0.0016 ppm,[6]; [8],81%
same,inhibition at 0.0016 ppm,[2]; [9],5%
same,inhibition at 0.0031 ppm,[2]; [9],13%
same,inhibition at 0.0063 ppm,[2]; [9],31%
"CNC(=O)C(OC)c1ccccc1COc1cc(C)ccc1C (stereo not drawn) [(B11), mandestrobin, reference compound]",(B11) Inhibition (%),"[1]; 0.0008 ppm, in PDB",0%
same,(B11) Inhibition (%),"[1]; 0.0016 ppm, in PDB",3%
same,(B11) Inhibition (%),"[1]; 0.0031 ppm, in PDB",0%
same,(B11) Inhibition (%),"[1]; 0.0063 ppm, in PDB",12%
same,(B11) Inhibition (%),[4]; 0.0016 ppm,5%
same,(B11) Inhibition (%),[4]; 0.0250 ppm,0%
same,(B11) Inhibition (%),[4]; 0.0500 ppm,8%
same,(B11) Inhibition (%),[5]; 0.1000 ppm,0%
same,(B11) Inhibition (%),[5]; 0.2000 ppm,11%
same,(B11) Inhibition (%),[7]; 0.0500 ppm,17%
same,(B11) Inhibition (%),[7]; 0.1000 ppm,53%
same,(B11) Inhibition (%),"[6]; 0.0250 ppm, in PDB",0%
"CC(=O)Oc1c(C)c(C)nc2c(F)cc(C(C)(C)C)cc12 [(B12), tebufloquin, reference compound]",(B12) Inhibition (%),"[1]; 0.0156 ppm, in PDB",0%
same,(B12) Inhibition (%),"[1]; 0.0313 ppm, in PDB",1%
same,(B12) Inhibition (%),[4]; 0.0313 ppm,5%
same,(B12) Inhibition (%),[4]; 0.1250 ppm,0%
same,(B12) Inhibition (%),"[6]; 0.2500 ppm, in PDB",7%
same,(B12) Inhibition (%),"[6]; 0.5000 ppm, in PDB",60%
"COC(=O)N(OC)c1ccccc1COc1nc(Cl)c(Cl)cc1Cl [(B13), triclopyricarb, reference compound]",(B13) Inhibition (%),[4]; (B13) triclopyricarb alone at 0.0125 ppm,8%
same,(B13) Inhibition (%),[4]; (B13) triclopyricarb alone at 0.0250 ppm,18%
same,(B13) Inhibition (%),[5]; 0.0500 ppm,11%
same,(B13) Inhibition (%),[5]; 0.1000 ppm,10%
same,(B13) Inhibition (%),[5]; 0.2000 ppm,11%
same,(B13) Inhibition (%),"[6]; (B13) triclopyricarb alone at 0.0016 ppm, in PDB",23%
same,(B13) Inhibition (%),"[6]; (B13) triclopyricarb alone at 0.0031 ppm, in PDB",51%
"CCN(C)/C=N/c1cc(C)c(Oc2nc(Cc3ccc(Cl)cc3)ns2)cc1C [(B14), N′-[4-[[3-[(4-chlorophenyl)methyl]-1,2,4-thiadiazol-5-yl]oxy]-2,5-dimethylphenyl]-N-ethyl-N-methyl-methanimidamide, reference compound]",inhibition at 0.25 ppm,"[6]; Monographella nivalis, (B14) compound of formula IV alone at 0.2500 ppm, in PDB",40%
